Data taken from patent US20240398844A1, “PHENYLCOUMARINS FOR TREATING INFLAMMATION” (Ohio State Innovation Foundation, priority 2021, published 2024).
“Also recorded” adds a separate entry of the source.

Legend:
[1] = test system: NFκB; assay: NFκB in vitro assay, NFκB translocation to the nucleus in HeLa cells; type: cell-based; conditions: for IC50: inhibiting NFκB translocation to the nucleus, tested at 50, 5, 0.5, and 0.05 μM
Description: Following derivatization and purification, compound 40 was tested in the NFκB and PPAR-Y in vitro assays, as well as the diabetic zebrafish Western blot. The three 4-phenylcoumarin glycoside natural products from the diverse library (22, 23, and 24) and the isopropyl ether derivative (40), were evaluated for PPAR-γ activity at 50 μg/mL in HeLa cells according to a PPAR-γ ELISA Assay (Table 4). […] NFκB Assay (Table 4).
As an excellent lead, 24 was derivatized to yield 40, and both compounds were evaluated in the NFκB and PPAR-γ in vitro assays (Table 4). […] To investigate 24 and 40 in a live, metabolizing system with appropriate hormone responses, the compounds were tested (at 10, 5, and 1 μM) in the larval diabetic zebrafish assay.

[2] = test system: PPAR-γ; assay: Diabetic zebrafish Western blot, PPAR-γ expression; type: in vivo; conditions: for PPAR-γ expression, dose dependence: diabetic zebrafish, 10, 5, and 1 μM
Description: (§1) Alloxan-induced diabetic zebrafish were treated with compounds for immunoblot to validate the newly developed animal model, determine the antidiabetic potential of natural product leads, evaluate glucose metabolism, and discover possible mechanisms of action.
(§2) At 72 hpf, naturally dechorionated zebrafish were sorted into a 24-well microplate with 10 fish per well. Type 2 diabetes was induced with the diabetogenic agent alloxan at a dose of 0.5 mg/mL in system water for 3 hours. The incubation solution was changed to 0.01% DMSO in system water with compounds at concentrations of 20 μg/mL or 10 PM, respectively. After 3 hours of treatment with natural product samples, 10 mg/mL D-glucose was administered in system water for 30 minutes, followed by 1 hour in fresh system water to metabolize the glucose and natural product leads. Upon completion of the 4-phase treatment cycle, zebrafish treatment groups were snap frozen into individual microcentrifuge tubes on dry ice, stored overnight at −80° C., thawed, homogenized with 2 μL PBS per animal, and centrifuged at 4° C. for 1 hour at 17,000 rpm. Protein content of homogenate supernatant was determined using the Pierce BCA Protein Assay kit (Pierce Biotechnology) and bovine serum albumin (BSA) standard curve. Absorbance of protein solutions from zebrafish homogenates and serial dilutions of the BSA standard were measured at 544 nm, using a FLUOstar Optima plate reader (BMG Labtechnologies GmbH, Inc.). Homogenates were analyzed by Western blot. Equal amounts of protein (20 μg) were combined with 4× lithium dodecyl sulphate (LDS) loading buffer (NuPAGE, Life Technologies, Carlsbad, CA, USA), brought to volume (15 μL) with PBS, and heated to 95° C. for 5 minutes. Proteins were resolved using NuPAGE Bis-Tris 4-12% gradient sodium dodecyl sulfate polyacrylamide gel electrophoresis (SDS-PAGE) gels together with SeeBlue Plus2 Pre-Stained Standard Ladder (Life Technologies).
Electrophoresis was performed using NuPAGE MES SDS Running Buffer and XCell SureLock Mini-Cell Electrophoresis System (Life Technologies). Separated proteins were transferred from the gel to a polyvinylidene fluoride (PVDF) membrane using tris buffered saline with Tween-20 (TBST) buffer. The blots were blocked in 3% BSA in TBST and subsequently probed using primary antibodies (1:1000 in 1% BSA in TBST) against each target overnight (Table 1). The secondary, horseradish peroxidase (HRP) conjugated antibodies (1:2000) were obtained from Santa Cruz Biotechnology Inc., (Santa Cruz, CA, USA). Conjugated antibodies were detected using SuperSignal West Femto chemiluminescent substrate from Pierce Biotechnology. […] Band density was quantified for proteins of interest using ImageJ Gel Analysis. […]

[3] = test system: NFκB p65; assay: Diabetic zebrafish Western blot, NFκB expression; type: in vivo; conditions: for NFκB p65 expression (Western blot band density): diabetic zebrafish, 10, 5, and 1 μM (rosiglitazone 10 μM), FIG. 10
Description: as §1
as §2, with “The incubation solution was changed to 0.01% DMSO in system water with compounds at concentrations of 20 μg/mL or 10 PM, respectively.” left out
Electrophoresis was performed using NuPAGE MES SDS Running Buffer and XCell SureLock Mini-Cell Electrophoresis System (Life Technologies). Separated proteins were transferred from the gel to a polyvinylidene fluoride (PVDF) membrane using tris buffered saline with Tween-20 (TBST) buffer. The blots were blocked in 3% BSA in TBST and subsequently probed using primary antibodies (1:1000 in 1% BSA in TBST) against each target overnight (Table 1). The secondary, horseradish peroxidase (HRP) conjugated antibodies (1:2000) were obtained from Santa Cruz Biotechnology Inc., (Santa Cruz, CA, USA). Conjugated antibodies were detected using SuperSignal West Femto chemiluminescent substrate from Pierce Biotechnology. Western blots were visualized, and images captured using a luminometer and LumiAnalyst 3.0 software (Boehringer-Mannheim, Mannheim, Germany). Band density was quantified for proteins of interest using ImageJ Gel Analysis.
In the case of duplicate blots, the band density results were expressed in bar graphs as the mean±standard error of the mean (SEM) of two independent experiments. Due to the labor- and time-intensive aspect of Western blot analysis with multiple target proteins, a maximum of two independent immunoblot experiments were performed per compared sample set. […] Additionally, treatment groups were also evaluated versus the diabetic, untreated control group for significance by Student's f-test and indicated in the bar graphs with p values represented by *p<0.05, **p<0.01, and ***p<0.001. […]

[4] = test system: PEPCK; assay: Diabetic zebrafish Western blot, PEPCK expression; type: in vivo; conditions: FIG. 8; for PEPCK expression, efficacy of lower doses: diabetic zebrafish, 5 and 1 μM; for PEPCK expression, dose dependence: diabetic zebrafish, 10, 5, and 1 μM

| Compound | times less effective at inhibiting NFκB translocation than parent compound 24 [1] [times] | IC50 [1] [µM] | PPAR-γ expression, dose dependence ([2]; FIG. 9) | NFκB p65 expression (Western blot band density) [3] | PEPCK expression, efficacy of lower doses [4] | PEPCK expression, dose dependence [4] | PPAR-γ expression (Western blot band density) ([2]; diabetic zebrafish, 10 μM, library screen, FIG. 3 / FIG. 11) | PPAR-γ expression versus rosiglitazone ([2]; diabetic zebrafish, same concentration (10 μM), FIG. 9) | NFκB expression (Western blot) ([3]; diabetic zebrafish, 10 μM, FIG. 5) |
| --- | --- | --- | --- | --- | --- | --- | --- | --- | --- |
| COc1cc(O[C@@H]2OCC(O)(CO[C@@H]3OC(CO)[C@@H](O)C(O)C3O)C2O)c2c(-c3ccc(OC(C)C)c(O)c3)cc(=O)oc2c1 (single isomer, unassigned) [Compound 40] | 2.6 | 10.2 | dose-dependent activation of PPAR-γ; also recorded: not as effective as 24 | significantly inhibit NFκB expression versus the untreated, diabetic control | not effective | dose-dependent increase in PEPCK expression; also recorded: slightly less active than the parent compound |  |  |  |
| COc1cc(O[C@@H]2O[C@H](CO[C@@H]3OCC(O)(CO)[C@H]3O)[C@@H](O)[C@H](O)[C@H]2O)c2c(-c3ccc(O)c(O)c3)cc(=O)oc2c1 (stereo partly drawn) [Compound 24, 5-O-[β-D-apiofuranosyl-(1→6)-β-D-glucopyranosyl]-7-methoxy-3′,4′-dihydroxy-4-phenylcoumarin] |  | 3.95 | dose-dependent activation of PPAR-γ | opposite dose-dependent effect | not effective | dose-dependent increase in PEPCK expression | greater PPAR-7 expression than the PPAR-γ positive control; also recorded: greatest PPAR-γ activation surpassing even the positive control thiazolidinedione | greater PPAR-γ expression than the FDA-approved PPAR-γ agonist | excellent inhibition of NFκB expression |
